Numbers after ± are expanded uncertainties.
Conditions: 313.15 K, Ring tensiometer

O [water]
surface tension liquid-gas: 67.2 ± 2.8 mN/m

Source: the NIST ThermoML archive (doi:10.1021/acs.jced.8b00372)
